Our source for the outcome, EC50 and IC50 values is PubChem BioAssay AID179 (DTP/NCI, 2004).

The subject of the assay is CEM cells HIV-1 protection, formazan growth assay. Put plainly: NCI AIDS Antiviral Assay. Conditions: for IC50: measured here: growth of uninfected CEM cells. A digest of the protocol: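 Five concentrations of each compound were applied to infected and uninfected human CEM cells. Protection from HIV-1 was judged from growth measured with a soluble formazan assay.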

“And” between values parts separate entries of the source, which are not always exact repeats. Equal entries are not always repeated. The source made the active and inactive calls.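 Rule for the calls: active = compounds giving half or more protection of infected cells from virus-caused growth loss, again on retest; inactive = the rest.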 *1 amine or outer side, *2 acyl side, *3 side chain or, on linkers, in order; H or OH if unused. Where a SMILES comes first, the peptide text is derived from it. [ ]: non-standard residue; d: D form. The star is where a group is joined. Trt = c1ccc(C(c2ccccc2)(c2ccccc2)*)cc1; X3 = CC(=O)N(C)SCC(N[*:1])C(=O)[*:2]; Cbz = O=C(OCc1ccccc1)*; Bn = c1ccc(C*)cc1; OtBu = CC(C)(C)O*; X14 = CC(C)COC*; For = O=C* Bounds are passed on as bounds.

For the compound `N#C[C@H](OC1OC(COC(=O)/C=C/c2ccc(O)c(O)c2)C(O)C(O)C1O)c1ccccc1` (stereo partly specified), the result was inactive.

A word on the EC50: it is the concentration that produces a half-maximal response. Broadly, the IC50 is the concentration that gives 50% inhibition. As for `N#Cc1cccc(-n2[nH]c(=O)ccc2=O)c1`, the EC50 was greater than 200 µM and the IC50 is greater than 200 µM. Regarding `COCCCN1C(=O)C2c3[nH]c4ccccc4c3C3CCC(C(C)(C)C)CC3C2C1=O` (stereo unspecified), the EC50 is greater than 200 µM and the IC50 was determined as 31.6 µM.

As for `CC(=O)OC12c3ccccc3C1CCCC21OCCCO1` (stereo unspecified), the EC50 is greater than 200 µM and the IC50 was greater than 200 µM. Regarding `Nn1c(N=Nc2c(O)[nH]c3ccccc23)n[nH]c1=S`, the EC50 is greater than 33.9 µM and the IC50 was greater than 33.9 µM. In the case of `COc1ccccc1N1CCN(CCc2c[nH]c3cc4c(cc23)OCO4)CC1`, the EC50 was greater than 132 µM and the IC50 was 7.41 µM. As to `O=C(O)CNc1c2ccccc2nc2ccccc12`, the outcome was inactive. `CC(C)COCSCC(NC(=O)CNC(=O)C(Cc1ccccc1)NC(=O)CNC(=O)C(N)CSC(c1ccccc1)(c1ccccc1)c1ccccc1)C(=O)NC(Cc1ccccc1)C(=O)NCC(=O)OC(C)(C)C` (stereo unspecified) (H-C(Trt)GFGC(X14)FG-OtBu; configuration not given here): the EC50 is greater than 24 µM and the IC50 is greater than 24 µM.

For the compound `CS(=O)(=O)c1ccc(/C=C2/C=Cc3ccccc32)cc1`, the EC50 was greater than 25.7 µM and the IC50 was greater than 25.7 µM.

On to `CC(=O)OC12c3ccccc3C(c3ccccc31)C1C(=O)N(Nc3ccccc3)C(=O)C12` (stereo unspecified), for which the EC50 is greater than 200 µM and the IC50 was greater than 200 µM.

For the compound `COC(=O)C1=C(C(=O)OC)C2C=CC1C1C(Cl)=C(Cl)C21` (stereo unspecified), the result was inactive. Turning to `CC(=C/c1ccccc1)/C=C1/NC(=S)NC1=O`, the EC50 is greater than 200 µM and the IC50 is greater than 200 µM.

For the compound `COc1ccc(C(CC(=O)c2ccccc2)C(=O)c2ccc3c(c2)OCO3)cc1` (stereo unspecified), the EC50 was greater than 200 µM and the IC50 was greater than 200 µM.

For the compound `CC12CCC3(C1)[C@H](CC2=O)C[C@@H](OC(=O)c1ccccc1)C1C(C)(CO)CCC[C@@]13C` (stereo partly specified), the EC50 is greater than 44.7 µM and the IC50 was determined as 0.891 µM.

On to `CC(C(=O)NCCNC(=O)CCCC(=O)N(C)O)C(=O)NCCNC(=O)CCCC(=O)N(C)O`, for which the EC50 is greater than 200 µM and the IC50 was greater than 200 µM.

For the compound `C=C(CN(C)C)C(=O)c1ccc(OC2OC(COC(C)=O)C(OC(C)=O)C(OC(C)=O)C2OC(C)=O)cc1` (stereo unspecified), the EC50 was greater than 200 µM and the IC50 worked out at 3.24 µM. For the compound `C/C(=N\NC(=S)N1CCN(c2ccccn2)CC1)c1cccc(C)n1`, the EC50 is greater than 42.7 µM and the IC50 came to 0.0155 µM. Taken in the same sequence, the figures for `O=C1C=CC(O)=CC1=P(c1ccccc1)(c1ccccc1)c1ccccc1` were greater than 200 µM and 32.4 µM. With `CCC(CCNC(=O)c1ccccc1)(CCNC(=O)c1ccccc1)[N+](=O)[O-]`, the EC50 was greater than 200 µM and the IC50 is greater than 200 µM. As for `CC1=C(C(=O)Nc2ccccc2)C(c2cccc3ccccc23)C(C(=O)Nc2ccccc2)=C(C)N1`, the result was inactive. Turning to `O=C1c2ccccc2C(=O)N1CCc1ncc[nH]1`, the EC50 was greater than 200 µM and the IC50 was greater than 200 µM. Turning to `ClC1OC(Cl)(Cl)C(Cl)(Cl)OC1(Cl)Cl` (stereo unspecified), the result was inactive. On to `[O-][n+]1onc2c1-c1nonc1CC2`, for which the EC50 was greater than 200 µM and the IC50 worked out at 26.9 µM. `CC(C(=O)O)c1ccc2c(c1)Cc1ccccc1-2` (stereo unspecified): the EC50 was greater than 200 µM and the IC50 is greater than 200 µM. For the compound `COc1cc(O)c(/C=N/N=C(\N)NO)c(OC)c1`, the EC50 was greater than 200 µM and the IC50 is 44.7 µM. The corresponding values for `CCCC1(CC(=O)O)OCCc2c1[nH]c1ccccc21` (stereo unspecified) are greater than 912 µM and 457 µM. Taken in the same sequence, the figures for `CCOC(=O)C1=C(O)c2c(OC)ccc(OC)c2C(=O)C1=O` were greater than 427 µM and greater than 427 µM. The corresponding values for `COc1cc([N+](=O)[O-])c(S(=O)(=O)O)cc1-[n+]1nc(C(=O)Nc2ccccc2)nn1-c1ccc([N+](=O)[O-])c(S(=O)(=O)[O-])c1` are greater than 200 µM and greater than 200 µM.

Turning to `CCCCCCCCNC(=O)/C(=C\c1ccc(/C=C(/NC(=O)c2ccccc2)C(=O)NCCCCCCCC)cc1)NC(=O)c1ccccc1`, the EC50 was greater than 100 µM and the IC50 worked out at 23.4 µM.

Take `CC(=O)OC1CC2C(=O)C(=O)C1(C)C2(C)C` (stereo unspecified): the EC50 is greater than 200 µM and the IC50 was greater than 200 µM. In the case of `COc1cc(CC2c3cc(OC)c(OC)cc3CCN2C)ccc1O` (stereo unspecified), the EC50 is greater than 380 µM and the IC50 stood at 138 µM. Consider `COC1=CC(=O)c2nc(C)ccc2C1=O`, for which the outcome was inactive.

As to `Cc1c(OCc2cccc3ccccc23)ccc2c(=O)cc(S)oc12`, the EC50 was greater than 200 µM and the IC50 was 93.3 µM. Taken in the same sequence, the figures for `CCCCN(CCCC)C(=Nc1ccccc1)N(CCCC)CCCC` were greater than 138 µM and 24 µM. Taken in the same sequence, the figures for `O=C(O)CCCCSCCCCCCSCCCCC(=O)O` were greater than 141 µM and greater than 141 µM. The corresponding values for `COc1cc(OC)cc(-n2c(N)c(C#N)c3ccc([N+](=O)[O-])cc3c2=O)c1` are greater than 200 µM and greater than 200 µM. As to `C/C=C(/CCCCCOCOCCOC)[Si](C)(C)C`, the EC50 is greater than 324 µM and the IC50 was greater than 324 µM. On to `O=[N+]([O-])c1cccc(C2=NOC3CCCC23)c1` (stereo unspecified), for which the result was inactive. On the same count and under the same terms, for `O=C1C(=C2C(=O)c3ccccc3[N+]2=O)N([O-])c2ccccc21` the value was “inactive”. For `COc1cc(-c2cc(=O)c3c(OC)c(OC)c(OC)c(OC)c3o2)cc(OC)c1OC`, the EC50 was greater than 200 µM and the IC50 amounted to 28.2 µM. As to `Cc1ccc(/C=C2/N=C(N/N=C\C(O)C(O)C(O)C(O)CO)NC2=O)cc1` (stereo unspecified), the EC50 is greater than 200 µM; the IC50 was 123 µM and > 200 µM and 132 µM. As for `CC1(C)OC2OC(C(O)COC(=O)c3ccccc3)C(F)C2O1` (stereo unspecified), the EC50 was greater than 209 µM and the IC50 was greater than 209 µM. With `N#CCCC1(CCC#N)S(=O)(=O)OCCOS1(=O)=O`, the EC50 was greater than 200 µM and the IC50 came to 44.7 µM. With `CC(=O)Oc1cc2c(cc1OC(C)=O)C1(C)CCC2(C)c2cc(OC(C)=O)c(OC(C)=O)cc21`, the result was inactive. As for `Nc1nc(=S)c2[nH]cnc2[nH]1`, the EC50 is greater than 60.3 µM and the IC50 was 0.955 µM. Taken in the same sequence, the figures for `C/C(=N\Nc1ccc([N+](=O)[O-])cc1[N+](=O)[O-])c1ccc2ccccc2n1` were 182 µM and greater than 200 µM.

For the compound `CCCCCSP(=S)(C(C)C)C(C)C`, the EC50 is greater than 200 µM and the IC50 turned out to be 115 µM. In the case of `CC(=O)OCCSSCCOC(C)=O`, the EC50 was greater than 200 µM and the IC50 was 89.1 µM. Taken in the same sequence, the figures for `NC(c1ccccc1)(C(F)(F)F)P1(=O)OC(=O)c2ccccc2O1` (stereo unspecified) were greater than 200 µM and greater than 200 µM.

In the case of `O=C(CSc1nnc(Cc2ccccc2)o1)Nc1ccc(Cl)cc1Cl`, the EC50 was greater than 66.1 µM and the half-maximal inhibitory concentration (IC50) is greater than 66.1 µM. For `N#Cc1cc([N+](=O)[O-])ccc1NC(=O)C(=O)C(C(=O)c1ccc2ccccc2c1)C1OCc2ccccc21` (stereo unspecified), the EC50 is greater than 70.8 µM and the IC50 was 37.2 µM. In the case of `O=C(O)/C(Cl)=C(\Cl)C(=O)Nc1ccccc1`, the result was inactive. In the case of `O=C1C(c2ccccc2)=C(c2ccccc2)C(c2ccc(Cc3ccc(C4=C(c5ccccc5)C(=O)C(c5ccccc5)=C4c4ccccc4)cc3)cc2)=C1c1ccccc1`, the EC50 was greater than 1.35 µM and the IC50 was greater than 1.35 µM. Turning to `O=c1c(-c2ccc(O)cc2)coc2cc(O)cc(O)c12`, the EC50 is greater than 200 µM and the IC50 worked out at 5.62 µM.

Take `COc1ccc2c(c1)OC(C)(C)C1c3cc(O)c(OCc4ccccc4)cc3OC21` (stereo unspecified): the EC50 is greater than 200 µM and the IC50 was 16.6 µM.

For the compound `CCCCCCCCCCCCCCCCCCOCC(COP(=O)([O-])OCC[N+](C)(C)C)OC` (stereo unspecified), the EC50 is greater than 10.2 µM and the IC50 turned out to be 2.45 µM. Regarding `CCCNC(=S)NNC(=O)CSc1nc(-c2ccccc2)c(-c2ccccc2)[nH]1`, the EC50 is greater than 117 µM and the IC50 was determined as 57.5 µM.

For the compound `CC(=O)N1C(=O)CC2(N=C(C)CC2=O)c2ccccc21` (stereo unspecified), the EC50 is greater than 200 µM and the IC50 was greater than 200 µM. `CN1CC2=C(OC(N)=C(C#N)C2c2cccs2)/C(=C/c2cccs2)C1` (stereo unspecified): the EC50 is greater than 200 µM and the IC50 was 8.13 µM. Taken in the same sequence, the figures for `c1cc2cc(Cc3ccc4[nH]ccc4c3)ccc2[nH]1` were greater than 200 µM and 30.9 µM. The corresponding values for `O=c1oc2c3ccc4ccccc4c3n(CCCN3CCCCC3)c2c2ccccc12` are greater than 16.2 µM and 7.76 µM. Regarding `Cc1nccn1Cc1c(N)nc(N)[nH]c1=O`, the EC50 was greater than 200 µM and the IC50 was greater than 200 µM.

Turning to `COc1ccc(N=NC(=O)NC(CC(C)C)C(N)=O)cc1` (stereo unspecified), the EC50 was greater than 200 µM and the IC50 was found to be 3.39 µM. Take `CC(=O)c1ccc(NC(=O)COC(=O)c2cccc3c(=O)c4ccccc4[nH]c23)cc1`: the result was inactive. The same measure, in the same setting: the result for `O=[P+](O)c1cc2ccccc2c2ccccc12` reads “inactive”.

`CC(=O)N(C)SCC(NC(=O)C(Cc1ccccc1)NC(=O)OCc1ccccc1)C(=O)NC(Cc1ccccc1)C(=O)NC(Cc1cn(C=O)c2ccccc12)C(=O)NC(CCCCNC(=O)OCc1ccccc1)C(=O)NC(C(=O)NC(CSN(C)C(C)=O)C(=O)NC(C(N)=O)C(C)OCc1ccccc1)C(C)OCc1ccccc1` (stereo unspecified) (Cbz-F[X3]FW(For)K(Cbz)T(Bn)[X3]T(Bn)-NH2; configuration not given here): the EC50 is greater than 100 µM and the IC50 is greater than 100 µM. As to `CCCN(CC)C(=O)COc1cc2c(O)c3c(O)c(C)c4c(c13)C(=O)C(C)(O/C=C/C(OC)C(C)C(OC(C)=O)C(C)C(O)C(C)C(O)C(C)/C=C/C=C(\C)C(=O)N2)O4` (stereo unspecified), the EC50 is greater than 200 µM and the IC50 amounted to 12.9 µM. For the compound `c1ccc(OCCSCCCCCCCCCCSCCOc2ccccc2)cc1`, the EC50 was greater than 8.51 µM and the IC50 was greater than 8.51 µM.

On to `O=[N+]([O-])c1ccc(N2N=C(c3c(O)ccc4ccccc34)CC2c2ccc(Cl)cc2)c([N+](=O)[O-])c1` (stereo unspecified), for which the EC50 is greater than 200 µM and the concentration for half-maximal inhibition (IC50) came to 16.6 µM.
